The record followed here is article PMC4856737 (Bioorganic & medicinal chemistry letters, 2016).

As usually defined, the viability is the share of living cells, or the viability signal relative to a control. A low value points to a greater loss of cells. One may read the IC50 as the midpoint of a concentration-inhibition curve. A high value points to lower potency.

The structures appear in SMILES notation.

Data set [1] deals with M. Tb. H37Rv. The data set is described as follows: Minimum bactericidal concentration. The data set is classed as cell-based, Mycobacterium tuberculosis.
The nature of data set [2]: in vitro. The note with it: mouse, % of cellular viability, High conc.
Data set [3] deals with M. Tb. H37Rv (ATCC 27294). The data set can be described thus: M. Tb. H37Rv dose-response assay. The data set is classed as cell-based. The conditions noted are these: Mycobacterium tuberculosis, ATCC27294|H37RV.

In the case of `COC(=O)c1c(C(F)(F)F)[n+]([O-])c2ccc(N3CCN(c4ccc(F)cc4)CC3)cc2[n+]1[O-]` [Compound 21], in data set [1] (ratio MBC/MIC ≤ 4), the bactericidal classification entry is “bactericidal”.
`O=C(c1ccco1)c1c(C(F)(F)F)[n+]([O-])c2cc(Cl)c(N3CCOCC3)cc2[n+]1[O-]` [Compound 16]: the MBC result in data set [1] (NA: colony counts above the established rejection value ≥ 40, TNTC: too numerous to count) is “TNTC”. Besides, in data set [2], the viability was 26%. Further, the IC50 in data set [3] was 500 to 1500 nM.
Compound `Cc1c(C(=O)/C=C/c2ccccc2)[n+]([O-])c2cc(Cl)ccc2[n+]1[O-]` [Compound 3] returned an IC50 in data set [3] of 500 to 1500 nM.
Still for that read-out and setting: the same measure for `CC(=O)c1c(C(F)(F)F)nc2cc(F)c(N3CCSCC3)cc2[n+]1[O-]` [Compound 24]: 500 to 1500 nM.
